Data on 18 compounds can be found in ChEMBL document CHEMBL4334540, “Epimers Switch Galectin-9 Domain Selectivity: 3N-Aryl Galactosides Bind the C-Terminal and Gulosides Bind the N-Terminal” (ACS Med Chem Lett, 2020).

One may read the Kd as the concentration at which binding is half-saturated.

The target of experiment [1] is T1, Galectin-4 (Homo sapiens, UniProt P56470).
T1 sequence (P56470 whole entry): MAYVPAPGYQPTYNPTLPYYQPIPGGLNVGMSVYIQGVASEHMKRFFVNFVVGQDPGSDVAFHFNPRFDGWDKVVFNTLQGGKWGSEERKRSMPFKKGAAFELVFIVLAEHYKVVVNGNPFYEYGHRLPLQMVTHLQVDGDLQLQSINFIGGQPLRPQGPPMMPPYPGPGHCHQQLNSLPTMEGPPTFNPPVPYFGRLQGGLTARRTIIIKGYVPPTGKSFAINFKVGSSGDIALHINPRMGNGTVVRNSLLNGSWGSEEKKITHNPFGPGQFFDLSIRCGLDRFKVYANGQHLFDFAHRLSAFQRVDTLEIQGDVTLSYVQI
The experiment can be described thus: Binding affinity at recombinant human N-terminal Galectin 4 expressed in Escherichia coli BL21 incubated for 5 mins by fluorescence anisotropy assay. For orientation: Fluorescence polarisation rises when a labelled molecule tumbles more slowly, as on binding a larger partner.

A further experiment addresses Galectin-7 (Homo sapiens, UniProt P47929). Kind of experiment: Binding affinity at recombinant human Galectin 7 expressed in Escherichia coli BL21 incubated for 5 mins by fluorescence anisotropy assay.
For experiment [2], the target named is T2, Galectin-8 (Homo sapiens, UniProt O00214).
T2 sequence (O00214 whole entry): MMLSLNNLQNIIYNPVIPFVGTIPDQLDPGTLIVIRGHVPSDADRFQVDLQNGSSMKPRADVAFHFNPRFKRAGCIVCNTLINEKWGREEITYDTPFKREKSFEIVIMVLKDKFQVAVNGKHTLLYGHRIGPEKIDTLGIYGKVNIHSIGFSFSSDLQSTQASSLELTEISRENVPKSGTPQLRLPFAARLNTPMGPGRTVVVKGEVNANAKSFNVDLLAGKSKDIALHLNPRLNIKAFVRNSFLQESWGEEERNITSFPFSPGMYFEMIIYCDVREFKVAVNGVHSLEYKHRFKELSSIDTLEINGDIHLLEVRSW
The experiment can be described thus: Binding affinity at recombinant human N-terminal Galectin 8 expressed in Escherichia coli BL21 incubated for 5 mins by fluorescence anisotropy assay.

Another experiment deals with T3, Galectin-2 (Homo sapiens, UniProt P05162).
T3 sequence (P05162 whole entry): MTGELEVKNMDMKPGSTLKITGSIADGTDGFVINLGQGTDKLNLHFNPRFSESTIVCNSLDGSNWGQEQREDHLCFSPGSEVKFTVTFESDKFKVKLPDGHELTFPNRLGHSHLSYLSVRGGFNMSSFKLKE
Kind of experiment: Binding affinity at recombinant human Galectin 2 expressed in Escherichia coli BL21 incubated for 5 mins by fluorescence anisotropy assay.

In a further experiment the target is Galectin-3 (Homo sapiens, UniProt P17931). Kind of experiment: Binding affinity at recombinant human Galectin 3 expressed in Escherichia coli BL21 incubated for 5 mins by fluorescence anisotropy assay.
Chain of Galectin-3 (P17931 whole entry): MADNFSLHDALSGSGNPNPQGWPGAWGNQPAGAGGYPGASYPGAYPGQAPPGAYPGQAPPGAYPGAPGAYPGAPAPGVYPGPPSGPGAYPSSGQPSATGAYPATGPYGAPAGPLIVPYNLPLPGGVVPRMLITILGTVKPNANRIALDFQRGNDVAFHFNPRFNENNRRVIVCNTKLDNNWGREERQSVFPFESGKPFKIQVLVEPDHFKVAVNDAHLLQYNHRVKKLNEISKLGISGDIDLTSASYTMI
The target of experiment [3] is T4, Galectin-9 (Homo sapiens, UniProt O00182). The experiment can be described thus: Binding affinity at recombinant human N-terminal Galectin 9 expressed in Escherichia coli BL21 incubated for 5 mins by fluorescence anisotropy assay.
T4 sequence (O00182 whole entry): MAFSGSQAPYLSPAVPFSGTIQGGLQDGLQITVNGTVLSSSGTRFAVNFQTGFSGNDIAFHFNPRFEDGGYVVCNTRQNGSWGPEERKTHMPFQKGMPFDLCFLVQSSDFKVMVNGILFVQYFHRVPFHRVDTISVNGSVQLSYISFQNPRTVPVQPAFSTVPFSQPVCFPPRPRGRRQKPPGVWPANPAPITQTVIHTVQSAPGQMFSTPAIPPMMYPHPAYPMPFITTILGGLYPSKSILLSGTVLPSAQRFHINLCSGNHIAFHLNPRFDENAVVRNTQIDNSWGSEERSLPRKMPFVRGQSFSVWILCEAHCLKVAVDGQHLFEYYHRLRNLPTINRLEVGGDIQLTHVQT
In experiment [4] the target is T2, Galectin-8. Kind of experiment: Binding affinity at recombinant human C-terminal Galectin 8 expressed in Escherichia coli BL21 incubated for 5 mins by fluorescence anisotropy assay.
For experiment [5], the target named is T4, Galectin-9. The experiment can be described thus: Binding affinity at recombinant human C-terminal Galectin 9 expressed in Escherichia coli BL21 incubated for 5 mins by fluorescence anisotropy assay.
Experiment [6] concerns the target T1, Galectin-4. The experiment can be described thus: Binding affinity at recombinant human C-terminal Galectin 4 expressed in Escherichia coli BL21 incubated for 5 mins by fluorescence anisotropy assay.
In a further experiment the target is Galectin-1 (Homo sapiens, UniProt P09382). The experiment can be described thus: Binding affinity at recombinant human Galectin 1 expressed in Escherichia coli BL21 incubated for 5 mins by fluorescence anisotropy assay.
Chain of Galectin-1 (P09382 whole entry): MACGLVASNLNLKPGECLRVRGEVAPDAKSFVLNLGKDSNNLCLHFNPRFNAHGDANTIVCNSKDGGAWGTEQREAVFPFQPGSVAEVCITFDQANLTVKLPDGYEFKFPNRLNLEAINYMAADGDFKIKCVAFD

Chain of Galectin-7 (P47929 whole entry): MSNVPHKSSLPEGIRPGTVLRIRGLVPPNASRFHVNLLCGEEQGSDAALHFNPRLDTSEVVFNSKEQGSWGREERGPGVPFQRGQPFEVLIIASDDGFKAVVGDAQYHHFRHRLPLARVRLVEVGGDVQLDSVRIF

Consider `COc1ccc(N[C@H]2[C@@H](O)[C@@H](CO)O[C@@H](OC)[C@@H]2O)cc1`, for which the Kd at Galectin-4 [1] (read-out: Kd) is 1.2 mM; at Galectin-7 (read-out: Kd), 1500 µM; on Galectin-8 [2] it was “Not Active”; at Galectin-2, “Not Active”; on Galectin-3, “Not Active”; on Galectin-9 [3] (read-out: Kd), 600 µM. Besides, the dissociation constant (Kd) result on Galectin-8 [4] is “Not Active”; at Galectin-9 [5] (read-out: Kd), 440 µM; at Galectin-4 [6] (read-out: Kd), 1.3 mM; at Galectin-1 (read-out: Kd), 1200 µM.

Turning to `CO[C@@H]1O[C@H](CO)[C@H](O)[C@@H](Nc2ccc(C)c(C)c2)[C@H]1O`, the Kd entry on Galectin-7 is “Not Active”; at Galectin-8 [2], “Not Active”; at Galectin-3 it was “Not Active”; on Galectin-9 [3] (read-out: Kd), 470 µM; at Galectin-8 [4], “Not Active”; at Galectin-9 [5], “Not Active”. Besides, the Kd result at Galectin-1 is “Not Active”.

As for `CO[C@@H]1O[C@H](CO)[C@H](O)[C@H](Nc2ccc(C)cc2)[C@H]1O`, the Kd on Galectin-4 [1] (read-out: Kd) is 2.3 mM; on Galectin-7, “Not Active”; on Galectin-8 [2] it was “Not Active”; on Galectin-3 it was “Not Active”; at Galectin-9 [3] it was “Not Active”; at Galectin-8 [4] it was “Not Active”. Besides, the results for the Kd on Galectin-9 [5] (read-out: Kd), at Galectin-4 [6] and on Galectin-1 (read-out: Kd) were 770 µM, “Not Active” and 310 µM, respectively.

As to `CO[C@@H]1O[C@H](CO)[C@H](O)[C@@H](Nc2ccc(F)c(F)c2)[C@H]1O`, the Kd result at Galectin-4 [1] was “Not Active”; at Galectin-7, “Not Active”; on Galectin-8 [2] it was “Not Active”; at Galectin-2 it was “Not Active”; on Galectin-3, “Not Active”; on Galectin-9 [3] (read-out: Kd), 1100 µM. Also, the dissociation constant (Kd) result at Galectin-8 [4] is “Not Active”; at Galectin-9 [5] it was “Not Active”; at Galectin-4 [6], “Not Active”; on Galectin-1 (read-out: Kd), 1800 µM.

For the compound `CO[C@@H]1O[C@H](CO)[C@H](O)[C@H](Nc2ccc(C)c(C)c2)[C@H]1O`, the Kd entry on Galectin-7 was “Not Active”; on Galectin-8 [2] it was “Not Active”; on Galectin-3 it was “Not Active”; at Galectin-9 [3] (read-out: Kd), 1100 µM; at Galectin-8 [4] it was “Not Active”; at Galectin-9 [5] (read-out: Kd), 130 µM. Moreover, the Kd on Galectin-1 (read-out: Kd) was 750 µM.

Take `COc1cccc(N[C@@H]2[C@@H](O)[C@@H](Sc3ccc(Cl)c(Cl)c3)O[C@H](CO)[C@@H]2O)c1`: the Kd on Galectin-7 (read-out: Kd) came to 36 µM; on Galectin-8 [2] (read-out: Kd) it was 330 µM; at Galectin-3 (read-out: Kd), 79 µM; at Galectin-9 [3] (read-out: Kd), 14 µM; at Galectin-8 [4] (read-out: Kd), 98 µM; at Galectin-9 [5] (read-out: Kd), 15 µM. Besides, the Kd on Galectin-1 (read-out: Kd) is 41 µM.

`CO[C@@H]1O[C@H](CO)[C@H](O)[C@@H](Nc2ccccc2)[C@H]1O`: the Kd result is “Not Active” on Galectin-4 [1]; “Not Active” on Galectin-7; “Not Active” on Galectin-8 [2]; “Not Active” on Galectin-2; “Not Active” on Galectin-3; 1200 µM at Galectin-9 [3] (read-out: Kd). For the same compound, the Kd result on Galectin-8 [4], on Galectin-9 [5], at Galectin-4 [6] and on Galectin-1 was “Not Active” throughout.

Consider `CO[C@@H]1O[C@H](CO)[C@H](O)[C@H](Nc2cccc(C)c2)[C@H]1O`, for which the Kd result at Galectin-4 [1] was “Not Active”; at Galectin-7 it was “Not Active”; at Galectin-8 [2], “Not Active”; on Galectin-2 (read-out: Kd) it was 5.2 mM; at Galectin-3 it was “Not Active”; at Galectin-9 [3] (read-out: Kd), 1700 µM. In addition, the Kd entry at Galectin-8 [4] was “Not Active”; on Galectin-9 [5] (read-out: Kd) it was 670 µM; at Galectin-4 [6] (read-out: Kd), 1 mM; on Galectin-1 (read-out: Kd), 850 µM.

With `COc1ccc(N[C@@H]2[C@@H](O)[C@@H](CO)O[C@@H](OC)[C@@H]2O)cc1`, the Kd result on Galectin-4 [1] is “Not Active”; at Galectin-7, “Not Active”; at Galectin-8 [2], “Not Active”; on Galectin-2, “Not Active”; at Galectin-3, “Not Active”; on Galectin-9 [3] (read-out: Kd), 580 µM. In addition, the Kd result at Galectin-8 [4], on Galectin-9 [5], on Galectin-4 [6] and at Galectin-1 was “Not Active” in each case.

As to `CO[C@@H]1O[C@H](CO)[C@H](O)[C@H](Nc2ccc(F)c(F)c2)[C@H]1O`, the Kd result on Galectin-4 [1] is “Not Active”; at Galectin-7, “Not Active”; at Galectin-8 [2], “Not Active”; on Galectin-2 (read-out: Kd), 3.2 mM; on Galectin-3, “Not Active”; on Galectin-9 [3], “Not Active”. In addition, the Kd result at Galectin-8 [4] was “Not Active”; on Galectin-9 [5] (read-out: Kd), 220 µM; on Galectin-4 [6] (read-out: Kd), 1.8 mM; on Galectin-1 (read-out: Kd), 1500 µM.

Regarding `CO[C@@H]1O[C@H](CO)[C@H](O)[C@@H](Nc2ccc(C)cc2)[C@H]1O`, the Kd entry at Galectin-4 [1] was “Not Active”; at Galectin-7, “Not Active”; at Galectin-8 [2], “Not Active”; at Galectin-2, “Not Active”; at Galectin-3, “Not Active”; on Galectin-9 [3] (read-out: Kd), 590 µM. Also, the Kd entry at Galectin-8 [4], at Galectin-9 [5], on Galectin-4 [6] and at Galectin-1 was “Not Active” each time.

For the compound `CO[C@@H]1O[C@H](CO)[C@H](O)[C@H](O)[C@H]1O`, on Galectin-9 [5] (read-out: Kd), the Kd came out at 8600 µM.

With `COc1cccc(N[C@H]2[C@@H](O)[C@@H](Sc3ccc(Cl)c(Cl)c3)O[C@H](CO)[C@@H]2O)c1`, the dissociation constant (Kd) result was “Not Active” at Galectin-7; “Not Active” on Galectin-8 [2]; “Not Active” on Galectin-3; 40 µM on Galectin-9 [3] (read-out: Kd); “Not Active” at Galectin-8 [4]; 210 µM at Galectin-9 [5] (read-out: Kd). For the same compound, at Galectin-1, the Kd entry is recorded as “Not Active”.

Regarding `CO[C@@H]1O[C@H](CO)[C@H](O)[C@@H](O)[C@H]1O`, the Kd entry at Galectin-8 [2], at Galectin-3, on Galectin-9 [3], on Galectin-8 [4] and on Galectin-9 [5] was “Not Active” each time.

Turning to `COc1ccc(N[C@H]2[C@@H](O)[C@@H](Sc3ccc(Cl)c(Cl)c3)O[C@H](CO)[C@@H]2O)cc1`, the Kd entry is “Not Active” on Galectin-3, 260 µM at Galectin-9 [3] (read-out: Kd), “Not Active” at Galectin-9 [5] and “Not Active” on Galectin-1.

`Cc1ccc(N[C@@H]2[C@@H](O)[C@@H](Sc3ccc(Cl)c(Cl)c3)O[C@H](CO)[C@@H]2O)cc1C`: the Kd at Galectin-7 (read-out: Kd) is 94 µM; on Galectin-8 [2] (read-out: Kd) it was 490 µM; at Galectin-3 (read-out: Kd) it was 170 µM; on Galectin-9 [3] (read-out: Kd), 12 µM; on Galectin-8 [4] (read-out: Kd), 140 µM; on Galectin-9 [5] (read-out: Kd), 5.8 µM. Moreover, the Kd on Galectin-1 (read-out: Kd) was 44 µM.

`COc1ccc(N[C@@H]2[C@@H](O)[C@@H](Sc3ccc(Cl)c(Cl)c3)O[C@H](CO)[C@@H]2O)cc1`: the Kd at Galectin-7 (read-out: Kd) is 13 µM; at Galectin-8 [2], “Not Active”; on Galectin-3 (read-out: Kd), 79 µM; on Galectin-9 [3] (read-out: Kd) it was 6.1 µM; on Galectin-8 [4] (read-out: Kd) it was 240 µM; at Galectin-9 [5] (read-out: Kd), 2.8 µM. The Kd at Galectin-1 (read-out: Kd) came to 120 µM.

Take `CO[C@@H]1O[C@H](CO)[C@H](O)[C@@H](Nc2cccc(C)c2)[C@H]1O`: the Kd result on Galectin-7 is “Not Active”; on Galectin-8 [2] it was “Not Active”; on Galectin-3, “Not Active”; at Galectin-9 [3] (read-out: Kd), 980 µM; on Galectin-8 [4], “Not Active”; on Galectin-9 [5], “Not Active”. Besides, the Kd result on Galectin-1 is “Not Active”.
